Among the data in patent publication US20240066136A1, “MODIFIED PROTEINS AND PROTEIN DEGRADERS” (Cullgen (Shanghai), Inc., priority 2020, published 2024) are Kd values, retold here.

The structures appear in SMILES notation.

The target of this assay is Human DDB1 (Homo sapiens (Human), UniProt Q16531). Nature of the assay: Surface plasmon resonance (SPR) binding assay to immobilized His-DDB1. To be noted: SPR, steady state affinity model, 25° C.; read-out: Binding (DDB1 binder activities, Kd). The procedure: The binding affinities of heterobifunctional compounds to DDB1 were determined by SPR assay. Purified His-DDB1 proteins were immobilized on a CM5 sensor chip, and a dose range of compound solutions were injected in multi-cycle kinetic format. Data were fit to steady state model and gave equivalent dissociation constants (KD).
Sequence of Human DDB1 (Q16531 whole entry): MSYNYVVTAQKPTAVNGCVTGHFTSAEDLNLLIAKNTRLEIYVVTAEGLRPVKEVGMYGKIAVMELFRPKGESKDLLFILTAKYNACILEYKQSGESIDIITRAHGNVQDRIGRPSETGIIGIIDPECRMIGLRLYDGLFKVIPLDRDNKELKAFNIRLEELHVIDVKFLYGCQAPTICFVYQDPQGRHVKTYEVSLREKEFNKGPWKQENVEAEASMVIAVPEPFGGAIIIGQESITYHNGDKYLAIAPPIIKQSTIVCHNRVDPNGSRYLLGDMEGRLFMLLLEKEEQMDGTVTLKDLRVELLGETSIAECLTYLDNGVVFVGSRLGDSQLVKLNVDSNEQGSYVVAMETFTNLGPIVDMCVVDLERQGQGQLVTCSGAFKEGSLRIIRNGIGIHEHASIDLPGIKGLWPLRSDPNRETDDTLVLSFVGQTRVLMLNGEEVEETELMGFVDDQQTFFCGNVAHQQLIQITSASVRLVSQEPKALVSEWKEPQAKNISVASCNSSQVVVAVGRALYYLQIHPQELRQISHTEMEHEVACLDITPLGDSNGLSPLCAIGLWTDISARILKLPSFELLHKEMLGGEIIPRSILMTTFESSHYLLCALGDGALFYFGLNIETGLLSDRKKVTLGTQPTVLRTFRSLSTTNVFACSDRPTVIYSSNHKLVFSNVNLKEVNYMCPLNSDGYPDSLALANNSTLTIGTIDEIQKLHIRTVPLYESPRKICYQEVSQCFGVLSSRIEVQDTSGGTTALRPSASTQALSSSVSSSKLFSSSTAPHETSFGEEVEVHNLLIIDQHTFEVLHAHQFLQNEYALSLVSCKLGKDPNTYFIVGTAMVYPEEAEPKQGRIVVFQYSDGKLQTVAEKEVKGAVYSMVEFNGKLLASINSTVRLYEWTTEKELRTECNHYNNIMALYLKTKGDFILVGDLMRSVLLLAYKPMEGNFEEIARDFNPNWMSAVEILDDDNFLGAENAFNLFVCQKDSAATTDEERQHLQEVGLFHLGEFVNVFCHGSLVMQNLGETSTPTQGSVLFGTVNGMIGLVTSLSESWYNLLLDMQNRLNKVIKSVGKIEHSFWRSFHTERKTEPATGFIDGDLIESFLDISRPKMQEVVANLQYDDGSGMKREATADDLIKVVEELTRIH
Protein Expression and Purification. Human DDB1 (UniPro: Q16531) coding sequences were cloned into pFastBacHTB vector and were expressed in High5 cells using Bac-to-Bac baculovirus expression system (Thermo Fisher Scientific). […] DDB1 proteins were obtained from supernatant of cell lysates and purified through sequential application of Ni affinity (Ni-NTA column. Bio-Rad), and size-exclusion (Superdex 200 16/600GL column, GE Healthcare) column chromatography.
Surface plasmon resonance (SPR) binding assay. All SPR studies were performed on a Biacore X100 plus or T200 instrument (GE Healthcare). Immobilization of purified His-DDB1 was carried out at 25° C. using a CM5 sensor chip. The surface was pre-equilibrated in HBS-EP running buffer (10 mM HEPES, pH7.4, 150 mM NaCl, 3 mM EDTA, 0.05% P20), then activated with EDC/NHS. His-DDB1 proteins were immobilized by amine coupling to a density of 11,000-13,000 resonance units (RUs) on flow cell FC2, whereas flow cell FC1 was used as reference. Both DDB1 immobilized and reference surfaces were deactivated with 1M ethanolamine.
All interaction experiments were performed at 25° C. […] Compound Solutions were injected individually in multi-cycle kinetic format without regeneration (flow rate […], association time 120 s, dissociation time 120 s). Sensorgrams from reference surfaces and blank injections were subtracted from the raw data (double-referencing) and the data was solvent-corrected prior to analysis. All data were fit to steady state affinity model using Biacore Evaluation Software and gave equivalent dissociation constants (KD).
Turning to `CC(C)Nc1ccccc1C(=O)Nc1ncc([N+](=O)[O-])s1` [B-70, 2-(Isopropylamino)-N-(5-nitrothiazol-2-yl)benzamide], the Kd is less than 20 µM.
To `O=C(Nc1ncc([N+](=O)[O-])s1)c1ccccc1NC1CC1` [B-71, 2-(cyclopropylamino)-N-(5-nitrothiazol-2-yl)benzamide] belongs 20 to 100 µM; to `COc1ccccc1C(=O)Nc1ncc([N+](=O)[O-])s1` [B-73, 2-methoxy-N-(5-nitrothiazol-2-yl)benzamide], more than 100 µM.
To `CC(C)Oc1ccccc1C(=O)Nc1ncc([N+](=O)[O-])s1` [B-74, 2-Isopropoxy-N-(5-nitrothiazol-2-yl)benzamide] belongs less than 20 µM; to `O=C(Nc1ncc([N+](=O)[O-])s1)c1ccccc1OC1CC1` [B-75, 2-Cyclopropoxy-N-(5-nitrothiazol-2-yl)benzamide], more than 100 µM.
To `O=C(Nc1ncc([N+](=O)[O-])s1)c1ccccc1OC(F)(F)F` [B-77, N-(5-nitrothiazol-2-yl)-2-(trifluoromethoxy)benzamide] belongs more than 100 µM; to `COC(=O)Oc1ccccc1C(=O)Nc1ncc([N+](=O)[O-])s1` [B-78, Methyl (2-((5-nitrothiazol-2-yl)carbamoyl)phenyl) carbonate], 20 to 100 µM; to `NS(=O)(=O)c1ccccc1C(=O)Nc1ncc([N+](=O)[O-])s1` [B-80, N-(5-Nitrothiazol-2-yl)-2-sulfamoylbenzamide], 20 to 100 µM.
Regarding `CNS(=O)(=O)c1ccccc1C(=O)Nc1ncc([N+](=O)[O-])s1` [B-81, 2-(N-Methylsulfamoyl)-N-(5-nitrothiazol-2-yl)benzamide], the Kd lay within 20 to 100 µM.
For the compound `CN(C)S(=O)(=O)c1ccccc1C(=O)Nc1ncc([N+](=O)[O-])s1` [B-82, 2-(N,N-dimethylsulfamoyl)-N-(5-nitrothiazol-2-yl)benzamide], the Kd is 20 to 100 µM.
Under `CC(C)c1ccccc1C(=O)Nc1ncc([N+](=O)[O-])s1` [B-84, 2-Isopropyl-N-(5-nitrothiazol-2-yl)benzamide] stands less than 20 µM.
To `O=C(Nc1ncc([N+](=O)[O-])s1)c1ccccc1C1CC1` [B-85, 2-cyclopropyl-N-(5-nitrothiazol-2-yl)benzamide] belongs 20 to 100 µM.
To `O=C(Nc1ncc([N+](=O)[O-])s1)c1ccccc1-c1ccccc1` [B-86, N-(5-Nitrothiazol-2-yl)-[1,1′-biphenyl]-2-carboxamide] belongs less than 20 µM; to `O=C(O)CCc1ccccc1C(=O)Nc1ncc([N+](=O)[O-])s1` [B-88, 3-(2-((5-Nitrothiazol-2-yl)carbamoyl)phenyl)propanoic acid], 20 to 100 µM; to `O=C(Nc1ncc([N+](=O)[O-])s1)c1ccccc1C(F)(F)F` [B-89, N-(5-Nitrothiazol-2-yl)-2-(trifluoromethyl)benzamide], 20 to 100 µM.
Regarding `O=C(Nc1ncc([N+](=O)[O-])s1)c1ccccc1Br` [B-93, 2-Bromo-N-(5-nitrothiazol-2-yl)benzamide], the equilibrium dissociation constant (Kd) is 20 to 100 µM.
Turning to `CC(=O)Oc1cc(NC2CCOCC2)ccc1C(=O)Nc1ncc([N+](=O)[O-])s1` [B-96, 2-((5-Nitrothiazol-2-yl)carbamoyl)-5-((tetrahydro-2H-pyran-4-yl)amino)phenyl acetate], the Kd is 20 to 100 µM.
Under `CCOc1cc(NC2CCOC2)ccc1C(=O)Nc1ncc([N+](=O)[O-])s1` (stereo not drawn) [B-97, 2-Ethoxy-N-(5-nitrothiazol-2-yl)-4-((tetrahydrofuran-3-yl)amino)benzamide] stands more than 100 µM.
With `CCOc1cc(NC2CCOCC2)ccc1C(=O)Nc1ncc([N+](=O)[O-])s1` [B-98, 2-Ethoxy-N-(5-nitrothiazol-2-yl)-4-((tetrahydro-2H-pyran-4-yl)amino)benzamide], the Kd lay within 20 to 100 µM.
Under `O=C1CCCCN1c1ncc([N+](=O)[O-])s1` [B-99, 1-(5-Nitrothiazol-2-yl)piperidin-2-one] stands 20 to 100 µM; under `O=C1CCCCCN1c1ncc([N+](=O)[O-])s1` [B-100, 1-(5-Nitrothiazol-2-yl)azepan-2-one], 20 to 100 µM.
